The values below come from PMC8213057, “Targeting ALK2: An Open Science Approach to Developing Therapeutics for the Treatment of Diffuse Intrinsic Pontine Glioma” (Journal of Medicinal Chemistry, 2020).

For one assay, the target named is CAMKK2 (Homo sapiens, UniProt Q96RR4). The conditions noted are these: 1 μM; Run 1, Run 2.
In the next assay the target is FGFR1 (Homo sapiens, UniProt P11362). The conditions noted are these: 1 μM; Run 1, Run 2.
In a further assay the target is T1, NEK8 (Homo sapiens, UniProt Q86SG6).
T1 sequence (Q86SG6 1-692): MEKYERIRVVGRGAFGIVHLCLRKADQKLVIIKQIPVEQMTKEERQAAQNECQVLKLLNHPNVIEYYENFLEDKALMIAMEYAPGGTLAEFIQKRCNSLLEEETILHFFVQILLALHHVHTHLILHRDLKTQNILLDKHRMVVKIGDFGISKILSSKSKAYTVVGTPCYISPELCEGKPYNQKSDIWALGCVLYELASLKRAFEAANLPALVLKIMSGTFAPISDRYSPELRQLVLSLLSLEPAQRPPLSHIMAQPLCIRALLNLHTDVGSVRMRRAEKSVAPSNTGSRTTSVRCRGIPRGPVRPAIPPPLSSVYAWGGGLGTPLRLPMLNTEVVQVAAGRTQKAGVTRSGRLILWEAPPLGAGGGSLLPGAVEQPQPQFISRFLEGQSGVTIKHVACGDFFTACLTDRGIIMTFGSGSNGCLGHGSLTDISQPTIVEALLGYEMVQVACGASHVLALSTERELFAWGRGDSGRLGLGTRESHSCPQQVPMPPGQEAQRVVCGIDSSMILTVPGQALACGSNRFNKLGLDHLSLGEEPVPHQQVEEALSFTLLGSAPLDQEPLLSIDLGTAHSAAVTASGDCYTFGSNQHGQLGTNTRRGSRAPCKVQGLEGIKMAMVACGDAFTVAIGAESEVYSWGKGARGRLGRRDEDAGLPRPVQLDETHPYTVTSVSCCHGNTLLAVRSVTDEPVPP
The conditions noted are these: 1 μM; Run 1, Run 2.

In a further assay the target is T2, SNRK (Homo sapiens, UniProt Q9NRH2).
T2 sequence (Q9NRH2 1-765): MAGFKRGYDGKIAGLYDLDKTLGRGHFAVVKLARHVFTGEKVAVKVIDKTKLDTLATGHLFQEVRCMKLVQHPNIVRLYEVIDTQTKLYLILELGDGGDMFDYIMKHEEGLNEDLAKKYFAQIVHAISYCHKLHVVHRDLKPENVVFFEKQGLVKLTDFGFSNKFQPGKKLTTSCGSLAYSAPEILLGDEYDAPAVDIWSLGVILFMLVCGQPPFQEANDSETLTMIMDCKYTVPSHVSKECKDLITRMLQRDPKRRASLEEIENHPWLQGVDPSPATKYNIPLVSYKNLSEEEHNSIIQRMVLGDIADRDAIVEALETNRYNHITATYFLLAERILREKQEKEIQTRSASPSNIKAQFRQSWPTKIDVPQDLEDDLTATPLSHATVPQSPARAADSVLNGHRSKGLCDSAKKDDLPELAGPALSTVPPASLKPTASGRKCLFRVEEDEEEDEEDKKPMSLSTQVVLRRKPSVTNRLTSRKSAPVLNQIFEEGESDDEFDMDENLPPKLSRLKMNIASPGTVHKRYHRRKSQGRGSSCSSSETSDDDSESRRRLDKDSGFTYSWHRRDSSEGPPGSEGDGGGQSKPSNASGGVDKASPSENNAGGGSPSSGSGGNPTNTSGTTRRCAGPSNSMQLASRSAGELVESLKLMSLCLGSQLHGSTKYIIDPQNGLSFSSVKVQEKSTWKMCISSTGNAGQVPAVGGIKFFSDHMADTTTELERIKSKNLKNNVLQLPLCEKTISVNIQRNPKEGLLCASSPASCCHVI
The conditions noted are these: 1 μM; Run 1, Run 2.

The next assay addresses T3, TBK1 (Homo sapiens, UniProt Q9UHD2).
T3 sequence (Q9UHD2 1-729): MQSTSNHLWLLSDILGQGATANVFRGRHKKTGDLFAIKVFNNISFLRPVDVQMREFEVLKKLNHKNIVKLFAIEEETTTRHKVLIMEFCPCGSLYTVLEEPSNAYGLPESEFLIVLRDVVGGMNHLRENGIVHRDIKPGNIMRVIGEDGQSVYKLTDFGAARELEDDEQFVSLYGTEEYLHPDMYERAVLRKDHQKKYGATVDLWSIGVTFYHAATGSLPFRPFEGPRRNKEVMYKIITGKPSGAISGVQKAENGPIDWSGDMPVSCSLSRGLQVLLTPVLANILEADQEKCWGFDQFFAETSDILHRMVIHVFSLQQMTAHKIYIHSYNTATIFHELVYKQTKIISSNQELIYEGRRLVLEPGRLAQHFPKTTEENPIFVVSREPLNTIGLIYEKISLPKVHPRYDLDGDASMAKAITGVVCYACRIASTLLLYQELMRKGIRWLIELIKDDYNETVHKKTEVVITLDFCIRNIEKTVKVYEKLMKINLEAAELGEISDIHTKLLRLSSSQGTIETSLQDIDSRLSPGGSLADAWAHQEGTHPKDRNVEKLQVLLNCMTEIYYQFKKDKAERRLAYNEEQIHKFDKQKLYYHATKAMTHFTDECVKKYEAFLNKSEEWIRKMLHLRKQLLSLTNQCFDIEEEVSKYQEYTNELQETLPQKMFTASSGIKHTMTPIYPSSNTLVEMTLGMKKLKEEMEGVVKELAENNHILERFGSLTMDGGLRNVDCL
The conditions noted are these: 1 μM; Run 1, Run 2.

Another assay addresses T4, MST1/STK4 (Homo sapiens, UniProt Q13043).
T4 sequence (Q13043 1-487): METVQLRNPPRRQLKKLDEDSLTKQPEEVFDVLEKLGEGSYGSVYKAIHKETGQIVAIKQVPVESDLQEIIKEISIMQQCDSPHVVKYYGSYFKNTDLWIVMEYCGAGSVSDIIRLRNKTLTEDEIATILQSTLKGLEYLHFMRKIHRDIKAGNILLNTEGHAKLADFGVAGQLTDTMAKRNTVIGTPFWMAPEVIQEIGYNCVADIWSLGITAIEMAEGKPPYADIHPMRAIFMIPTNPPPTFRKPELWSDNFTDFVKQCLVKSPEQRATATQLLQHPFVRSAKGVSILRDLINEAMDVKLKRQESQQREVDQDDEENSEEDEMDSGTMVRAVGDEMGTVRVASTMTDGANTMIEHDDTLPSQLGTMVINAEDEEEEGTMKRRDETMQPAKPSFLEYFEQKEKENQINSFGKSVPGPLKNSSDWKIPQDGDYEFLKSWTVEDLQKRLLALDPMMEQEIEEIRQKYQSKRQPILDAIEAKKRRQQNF
The assay can be described thus: biochemical. The conditions noted are these: read-out: % enzyme activity, 1 μM; Run 1, Run 2.

Chain of CAMKK2 (Q96RR4 whole entry): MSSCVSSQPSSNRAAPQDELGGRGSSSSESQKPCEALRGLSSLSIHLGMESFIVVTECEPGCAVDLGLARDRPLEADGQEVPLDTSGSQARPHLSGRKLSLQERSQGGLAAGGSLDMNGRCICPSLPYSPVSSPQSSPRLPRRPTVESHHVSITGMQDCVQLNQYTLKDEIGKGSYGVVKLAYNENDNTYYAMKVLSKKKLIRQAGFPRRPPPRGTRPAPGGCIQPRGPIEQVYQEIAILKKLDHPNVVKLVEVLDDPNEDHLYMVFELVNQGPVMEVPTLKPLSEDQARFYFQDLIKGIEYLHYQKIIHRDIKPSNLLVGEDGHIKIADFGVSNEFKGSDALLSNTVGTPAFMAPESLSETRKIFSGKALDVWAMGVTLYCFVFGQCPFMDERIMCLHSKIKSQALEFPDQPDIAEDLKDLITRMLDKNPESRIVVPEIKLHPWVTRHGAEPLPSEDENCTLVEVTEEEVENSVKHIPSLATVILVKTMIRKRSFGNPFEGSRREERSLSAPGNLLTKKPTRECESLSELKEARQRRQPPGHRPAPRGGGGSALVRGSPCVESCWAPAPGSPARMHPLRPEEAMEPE
Chain of FGFR1 (P11362 22-822): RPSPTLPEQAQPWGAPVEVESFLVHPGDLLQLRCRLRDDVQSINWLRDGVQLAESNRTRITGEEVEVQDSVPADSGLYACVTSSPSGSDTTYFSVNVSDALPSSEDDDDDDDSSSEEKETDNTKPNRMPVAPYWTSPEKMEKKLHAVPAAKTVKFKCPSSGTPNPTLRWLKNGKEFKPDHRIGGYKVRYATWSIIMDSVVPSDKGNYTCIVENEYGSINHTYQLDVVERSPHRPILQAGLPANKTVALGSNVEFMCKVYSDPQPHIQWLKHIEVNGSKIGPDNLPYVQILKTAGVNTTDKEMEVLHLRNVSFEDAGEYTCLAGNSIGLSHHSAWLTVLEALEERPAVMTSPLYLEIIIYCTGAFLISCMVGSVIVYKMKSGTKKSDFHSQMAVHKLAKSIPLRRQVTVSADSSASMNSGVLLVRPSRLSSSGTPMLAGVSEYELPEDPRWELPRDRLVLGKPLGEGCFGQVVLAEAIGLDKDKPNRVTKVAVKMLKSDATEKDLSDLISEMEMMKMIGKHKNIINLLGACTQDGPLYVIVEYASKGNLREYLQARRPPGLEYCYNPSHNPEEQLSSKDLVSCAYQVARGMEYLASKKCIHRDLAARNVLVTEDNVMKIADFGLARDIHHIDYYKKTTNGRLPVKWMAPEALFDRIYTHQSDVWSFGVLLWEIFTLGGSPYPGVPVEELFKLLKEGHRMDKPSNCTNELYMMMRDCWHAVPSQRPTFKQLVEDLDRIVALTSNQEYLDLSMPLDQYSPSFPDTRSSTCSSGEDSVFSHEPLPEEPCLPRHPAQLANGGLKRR

For the compound `COc1cc(-c2cncc(-c3ccc(N4CCN(C)CC4)cc3)c2C)cc(F)c1C(N)=O` [Compound 26a, 2-Fluoro-6-methoxy-4-(4-methyl-5-(4-(4-methylpiperazin-1-yl)phenyl)pyridin-3-yl)benzamide], the “% enzyme activity” value is recorded as 70.52% at CAMKK2; 96.52% at FGFR1; 98.06% at NEK8; 104.94% on SNRK; 92.56% at TBK1. The remaining activity at 1 µM on MST1/STK4 was determined as 101%.

With `COc1cc(-c2cncc(-c3ccc(N4C[C@@H](C)N(C)[C@@H](C)C4)cc3)c2C)cc(F)c1C(N)=O` [Compound 26c, 2-Fluoro-6-methoxy-4-(4-methyl-5-(4-((3R,5S)-3,4,5-trimethylpiperazin-1-yl)phenyl)pyridin-3-yl)benzamide], the “% enzyme activity” value at CAMKK2 stood at 75.78%; on FGFR1 it was 99.91%; at NEK8, 106.54%; at SNRK it was 97.75%; at TBK1, 85.62%. Besides, the remaining activity at 1 µM at MST1/STK4 came out at 103%.
